Test results: patent US20070293517A1, “Derivatives Of Chemotherapeutic Agents With A Formaldehyde Releasing Moiety” (RAMOT AT TEL AVIV UNIVERSITY LTD., priority 2004, published 2007)
One block for each compound: values may come before it.

Tests used:
[1] = tested on: colon carcinoma cells; assay: Viability of colon carcinoma cells (FIG. 12); type: cell-based
Protocol: (§1) Proliferation assay: cells at a density of 3-5×10^4 cells/ml in 200 μl medium supplemented with 10% FCS were seeded in tissue culture 96-well plates for 24 hours, and were then exposed for 72 hours to a novel derivative of a chemotherapeutic agent (in quadruplicate) as specified. After 3 days, the cells were rinsed with PBS, and fixed with ethanol (70%) for 30 minutes. The ethanol was thereafter discarded, 200 μl of 10 μg/ml HOECHST fluorescent dye (Sigma) solubilized in PBS were added and the fluorescence was measured at 390-460 nm with a FluoStar fluorometer. MTT solution (10 ml of 5 mg/ml MTT (Sigma) in PBS) was added, and the plate was incubated for 3 hours. Formazan crystals were dissolved with 140 ml of 0.04 HCl-isopropanol. The optical density of the wells was measured with a microplate reader at 540 nm.
(§2) Apoptosis assay: Cells (2×10^5 cells/ml) were seeded in 24-well plates and incubated with a derivative of a chemotherapeutic agent according to the present embodiments, as specified, for 24 hours. The cells were thereafter collected and double-stained with annexin V-FITC and propidium iodide, according to the manufacturer's instructions (MBL, Japan). Alive, apoptotic and total dead cells were quantitated by flow cytometry using a FACS calibur cytometer (Becton Dickinson).

[2] = tested on: various cell lines; assay: Dose response studies in various cell lines, absence and presence of semicarbazide; type: cell-based; details: 0.5 mM, absence of chemotherapeutic agents
Protocol: as §1
Semicarbazide sensitive amine oxidase is a source of formaldehyde and is therefore a marker for the effect of formaldehyde. It has been shown that semicarbazide traps formaldehyde and reduces its concentration inside the cell (Nudelman et al. J. Med. Chem., 2005, 48, 1047-1054). Thus, the critical role of formaldehyde can be confirmed by reversal of formaldehyde-mediated effects by the addition of semicarbazide.
Tables 3 and 4 below, as well as FIGS. 7A, 7B and 8A-8D present the dose response studies performed with various cell lines in the absence and presence of semicarbazide, the formaldehyde trapping agent.

[3] = tested on: HT-29; assay: Proliferation assay, HT-29 cells; type: cell-based, human
[4] = tested on: prostate carcinoma cells 22RV; assay: Viability of prostate carcinoma cells 22RV; type: cell-based, human
Protocol: Cells: The human breast cancer cell lines MCF-7 and MCF-7 DX, were obtained from Dr. R. Supino (Laboratorio Oncologia, Milano, Italy); the murine 3LLD122 highly metastatic Lewis lung carcinoma cell line was obtained from Dr. Eisenbach L, the Weizmann Inst., Israel. […]
as §1, with “After 3 days, the cells were rinsed with PBS, and fixed with ethanol (70%) for 30 minutes.” left out, “MTT solution (10 ml of 5 mg/ml MTT (Sigma) in PBS) was added, and the plate was incubated for 3 hours. Formazan crystals were dissolved with 140 ml of 0.04 HCl-isopropanol.” left out
as §2, with “The cells were thereafter collected and double-stained with annexin V-FITC and propidium iodide, according to the manufacturer's instructions (MBL, Japan).” left out

[5] = tested on: LS-1034; assay: Proliferation assay, LS-1034 cells; type: cell-based, human; details: Homo sapiens
Excerpt: (§3) Cells: The human breast cancer cell lines MCF-7 and MCF-7 DX, were obtained from Dr. R. Supino (Laboratorio Oncologia, Milano, Italy); the murine 3LLD122 highly metastatic Lewis lung carcinoma cell line was obtained from Dr. Eisenbach L, the Weizmann Inst., Israel. The following cell lines were purchased from the ATCC, USA: CT-26, an N-nitroso-N-methylurethane-(NNMU) induced murine (BALB-C) colon carcinoma; Panc02, a mouse (C57/Bl) pancreas adenocarcinoma; HT-49, a human colorectal adenocarcinoma; LS1034, a multidrug resistant human colorectal carcinoma; BxPC-3 human pancreas adenocarcinoma; MES-SA and MES-SA-DXS, human uterine sarcoma sensitive and multidrug resistant, respectively; and Human prostate carcinoma 22RV1, a subclone of CWR22 cells.
(§4) The cells were maintained in DMEM growth medium supplemented with 10% heat inactivated fetal calf serum, 2 mM glutamine, penicillin (250 units/ml) and streptomycin (125 μg/ml) in a humidified 5% CO2/air atmosphere at 37° C.
as §1
(§5) IC50 and IC90 values were determined from the best-fitted curve where the percentages of survival were 50 or 90 respectively.

[6] = tested on: CT-26; assay: Proliferation assay, CT-26 cells; type: cell-based, murine; details: Mus musculus, CT26; CT-26
Excerpt: as §3, §4, §1, §5

[7] = tested on: BXPC-3; assay: Proliferation assay, BXPC-3 cells; type: cell-based, human; details: Homo sapiens
Excerpt: as §3, §4, §1, §5

[8] = tested on: Panc 02; assay: Proliferation assay, Panc 02 cells; type: cell-based; details: Mus musculus, Panc02
Excerpt: as §3, §4, §1, §5

[9] = tested on: MES SA; assay: Proliferation assay, MES SA cells; type: cell-based, human; details: Homo sapiens
Excerpt: as §3, §4, §1, §5

[10] = tested on: MES SA DXS; assay: Proliferation assay, MES SA DXS cells; type: cell-based, human; details: Homo sapiens, MES SA DXS
Excerpt: as §3, §4, §1, §5

[11] = tested on: sensitive and resistant uterine cancer cells (MES-SA, MES-SA DXS); assay: Proliferation/survival, sensitive and resistant uterine cancer cells (both lines); type: cell-based, human
Excerpt: as §3, §1, §5

[12] = tested on: HT-29 human colon carcinoma; assay: Xenograft flank colon carcinoma model, HT29; type: in vivo; details: nude mice
Protocol: Xenograft flank colon carcinoma models: Eight weeks old, male CD1 nude mice (Harlan, Israel) were inoculated sc in the flanks with 5×10^6 HT29 or LS1034 cells. When tumor volume reached 50-100 mm^3, treatment with derivatives of chemotherapeutic agents according to the present embodiments commenced and was given by gavage five times a week for the duration of the experiment at the specified doses. Tumor volume (determined by caliper) and body weights were measured twice weekly. Tumor volume was measured (mm) using the formula for an ellipsoid sphere: Length×Width^2/2=Volume (mm)^3 This commonly used formula was also used to calculate tumor weight, assuming unit density (1 mm^3=1 mg). Serum PSA or CEA: […] At the end of the experiment blood samples were drawn from the eyes of mice (anesthetized slightly by inhalation of ether) or from the hearts of sacrificed animals.

[13] = tegafur value calculated by extrapolation from the best fitted curve

Structure (SMILES): O=c1cc[nH]c(=O)[nH]1 [uracil, reference compound]
effect on cancer cell viability (% of control) [1]: no effect

Structure (SMILES): NNC(N)=O [Semicarbazide, semicarbazide, reference compound]
effect of semicarbazide alone on the cells [2]: did not affect the cells

Structure (SMILES): CCCC(=O)OCN1C(=O)CCC(N2C(=O)c3ccccc3C2=O)C1=O (stereo not shown) [AN-438, 2-(1-butroyloxymethyl-2,6-dioxopiperidin-3-yl)isoindoline-1,3-dione]
reduction of viability compared with thalidomide ([3]; human colon cells HT-29): significantly more effective in reducing the viability
reduction of viability compared with thalidomide ([4]; prostate carcinoma cells 22RV): significantly more effective in reducing the viability
effect on viability on addition of semicarbazide ([4]; prostate carcinoma cells, 0.5 mM semicarbazide): abrogated the effect

IC90 ([3]; Homo sapiens, HT-29): 747 ± 52 µM
IC50 ([3]; Homo sapiens, HT-29, HT-29): 201 ± 15 µM
IC50 [7]: 172 ± 21 µM
IC90 [7]: 688 ± 113 µM
IC50 [8]: 179 ± 25 µM
IC90 [8]: 637 ± 66 µM
Structure (SMILES): O=c1[nH]c(=O)n(C2CCCO2)cc1F (stereo not shown) [Tegafur, tegafur, reference compound]
IC90 ([5]; LS-1034): 1600 ± 240 µM
IC50 ([5]; LS-1034, LS-1034): 519 ± 93 µM
IC50 [6]: 136 ± 19 µM
IC90 [6]: 411 ± 23 µM
IC50 [9]: 337 ± 20 µM
IC90 [9, 13]: 1200 ± 97 µM
IC50 [10]: 405 ± 20 µM
IC90 [10, 13]: 1470 ± 96 µM
maximal cell killing achieved [11]: 80%
CEA level in serum [12]: higher
tumor growth inhibition ([12]; P<<0.001): substantially inhibited tumor growth
